{"source": "paper PMC6232849", "about": "(European journal of medicinal chemistry, 2018)", "key": {"β-hematin formation": {"test_system": "β-hematin formation", "assay_type": "biochemical", "conditions": "for IC50: read-out: β-hematin inhibition IC50, NP-40 detergent mediated assay"}, "[1]": {"test_system": "NF54 strain of P. falciparum", "assay": "parasite growth inhibition, chloroquine-sensitive NF54 strain cultured in vitro", "assay_type": "cell-based, Plasmodium falciparum"}, "[2]": {"test_system": "hemozoin formation in NF54 strain of P. falciparum", "assay": "cellular heme fractionation assay", "assay_type": "cell-based, Plasmodium falciparum", "conditions": "NF54, 32 h incubation, drug added to early ring stage parasites"}, "[3]": {"test_system": "Dd2 strain of P. falciparum", "assay": "parasite growth inhibition, chloroquine-resistant Dd2 strain", "assay_type": "cell-based, Plasmodium falciparum"}, "[4]": {"test_system": "Chinese hamster ovarian, CHO, cells", "assay": "cytotoxicity against mammalian cells", "assay_type": "cell-based"}, "[5]": {"conditions": "read-out: NF54 malaria parasite growth inhibition IC50, chloroquine-sensitive NF54 strain, LDH method of Makler et al"}}, "note": "Where two headings read alike, the source gives them in different places."}
{"molecule": "O=C(Nc1ccc(-c2nc3ccccc3n2C(=O)c2ccccc2)cc1)c1cccc(Br)c1", "note": "[Compound 26, N-(4-(1H-Benzoyl-benzo[d]imidazole-2-yl)phenyl)-3-bromobenzamide]", "values": [{"measurement": "IC50", "setting": "β-hematin formation", "result": "15.6 ± 0.5", "unit": "µM"}, {"measurement": "IC50", "setting": "[1]; [5]", "result": "2600 ± 600", "unit": "nM"}]}
{"molecule": "O=C(Nc1ccc(-c2nc3ccccc3[nH]2)cc1)c1cncc(Br)c1", "note": "[Compound 5, N-(4-(1H-Benzo[d]imidazole-2-yl)phenyl)-5-bromonicotinamide]", "values": [{"measurement": "parasite growth inhibition activity (in words)", "setting": "[1]", "result": "sub-micromolar"}, {"measurement": "change in freely exchangeable heme in the parasite cell", "setting": "[2]", "result": "corresponding increase"}, {"measurement": "change in hemozoin in the parasite cell", "setting": "[2]", "result": "large decrease"}, {"measurement": "change in undigested hemoglobin in the parasite cell", "setting": "[2]", "result": "much smaller (non-significant) increase"}]}
{"molecule": "O=C(Nc1ccc(-c2nc3ccccc3[nH]2)cc1)c1ccccc1", "note": "[Compound 2]", "values": [{"measurement": "β-hematin inhibition activity (in words)", "setting": "β-hematin formation", "result": "virtually inactive"}, {"measurement": "parasite growth inhibition activity (in words)", "setting": "[1]", "result": "virtually inactive"}]}
{"molecule": "N-(4-(1H-Benzo[d]imidazole-2-yl)phenyl)-3-(trifluoromethyl)nicotinamide [Compound 9]", "values": [{"measurement": "IC50", "setting": "β-hematin formation", "result": "16.6 ± 0.3", "unit": "µM"}, {"measurement": "parasite growth inhibition activity (in words)", "setting": "[1]", "result": "sub-micromolar"}, {"measurement": "IC50", "setting": "[1]; read-out: IC50 NF54, chloroquine-sensitive NF54 strain (Table 2)", "result": "800 ± 500", "unit": "nM"}, {"measurement": "IC50", "setting": "[1]; [5]", "result": "800 ± 500", "unit": "nM"}, {"measurement": "RI (Resistance index = IC50 (Dd2)/IC50 (NF54))", "setting": "[3]; Dd2 versus NF54", "result": 1.4}, {"measurement": "IC50", "setting": "[3]; read-out: IC50 Dd2, chloroquine-resistant Dd2 strain", "result": "1100 ± 370", "unit": "nM"}, {"measurement": "SI (Dd2) (Selectivity index = IC50 (CHO)/IC50 (Dd2))", "setting": "[4]; CHO versus Dd2", "result": 32}, {"measurement": "SI (NF54) (Selectivity index = IC50 (CHO)/IC50 (NF54))", "setting": "[4]; CHO versus NF54", "result": 44}, {"measurement": "IC50", "setting": "[4]; read-out: IC50 CHO, cytotoxicity in CHO cells", "result": "35 ± 4", "unit": "µM"}]}
{"molecule": "O=C(Nc1ccc(-c2nc3ccccc3[nH]2)cc1)c1cc(Cl)nc(Cl)c1", "note": "[Compound 12, N-(4-(1H-Benzo[d]imidazole-2-yl)phenyl)-2,6-dichloroisonicotinamide]", "values": [{"measurement": "parasite growth inhibition activity (in words)", "setting": "[1]", "result": "sub-micromolar"}]}
{"molecule": "CCN(CC)CCCC(C)Nc1ccnc2cc(Cl)ccc12", "note": "(stereo not drawn) [Chloroquine, reference compound]", "values": [{"measurement": "IC50", "setting": "[1]; Plasmodium falciparum, NF54, read-out: IC50 NF54", "result": "16 ± 6", "unit": "nM"}, {"measurement": "IC50", "setting": "[1]; Plasmodium falciparum, NF54, read-out: NF54 malaria parasite growth inhibition IC50", "result": "16 ± 6", "unit": "nM"}, {"measurement": "IC50", "setting": "[3]; Plasmodium falciparum, DD2, read-out: IC50 Dd2", "result": "150 ± 30", "unit": "nM"}]}
